The source of these data is US9006294B2, “Oral pharmaceutical formulation of pelubiprofen with improved dissolution rate and stability” (Daewon Pharm., Co., Ltd., priority 2008, dated 2015).

The nature of data set [1]: Related compounds in pelubiprofen combined with single additives, stored two weeks at 60° C. The format is physicochemical. The conditions noted are these: pelubiprofen 20 mg plus additive. The method, then:
Increased amounts of related compounds were measured after oral pharmaceutical formulations with different mean particle sizes (27.4 μm, 45.6 μm) of pelubiprofen in combination with different amounts of various additives were stored for two weeks under the severe condition of 60° C.

Data set [2] in a line: Dissolution test of pelubiprofen tablets, Paddle Method of Korean Pharmacopoeia. The format is physicochemical. The source says: In accordance with the present invention, mean particle size of pelubiprofen preferably ranges from 1 to 30 μm. For example, pelubiprofen particles are difficult to prepare when less than 1 μm in mean particle size, although their dissolution rate increases thanks to the increased surface area thereof. On the other hand, pelubiprofen particles exceeding 30 μm in size have a decreased dissolution rate.
Pelubiprofen tablets differing in the mean particle size of pelubiprofen and the kinds and content of additives were measured for dissolution rate as follows.
A dissolution test was performed on the pelubiprofen tablets prepared in Examples 1 to 20 and Comparative Examples 1 to 18.
The dissolution test was performed according to the procedure of Paddle Method described in Korean Pharmacopoeia. In this regard, one tablet was tested in 900 mL of a dissolution medium (pH 1.2) at 37±0.5° C., with a maintenance of paddle rotation speed at 50 rpm. After a 45-min test, the dissolution medium was taken and filtered through a 0.45 μm filter, followed by the UV analysis of the filtrate.

SMILES strings stand for the structures.

Regarding `CC(C(=O)O)c1ccc(/C=C2\CCCCC2=O)cc1` (centres unmarked) [pelubiprofen, 2-[4-(2-oxocyclohexylidenemethyl)phenyl]propionic acid], the “Increase of Related Cpd.” value in data set [1] (MPS of pelubiprofen 27.4 μm) is 9.5%; in data set [1] (MPS of pelubiprofen 45.6 μm) it was 2.6%. Also, the “Total Related Cpd.” value worked out at 0.461% in data set [1] (MPS of pelubiprofen 27.4 μm) and 0.432% in data set [1] (MPS of pelubiprofen 45.6 μm). In addition, the dissolution rate in data set [2] (mean particle size of pelubiprofen 9.3 μm) is 85.8%; in data set [2] (mean particle size of pelubiprofen 19.1 μm), 75.3%; in data set [2] (mean particle size of pelubiprofen 27.4 μm), 70.4%; in data set [2] (mean particle size of pelubiprofen 45.6 μm) it was 41.4%.
